Assay results: US20160220569A1, “CDK4/6 Inhibitor Dosage Formulations For The Protection Of Hematopoietic Stem And Progenitor Cells During Chemotherapy” (G1 Therapeutics, Inc., priority 2015, published 2016)
“And” between values parts separate entries of the source, which are not always exact repeats. Equal entries are not always repeated. Where two headings read alike, the source gives them in different places.

Assay: Topotecan PK following Compound 1 infusion
Type: in vivo, human
Description: Blood samples were obtained prior to dosing, at the end of the 30-minute infusion (EOI), and at 0.5, 1, 1.5, 2, 2.5, 4, 6, 8, and 24 hours after the end of infusion. Analysis of plasma concentration versus time data for calculation of standard pharmacokinetic (PK) parameters following intravenous infusion administration was conducted using Phoenix WinNonlin version 6.3 using a nominal infusion duration and scheduled blood sampling times. In Cohort 2 there were 3 subjects who received 1.25 mg/m^2 of topotecan once daily on Days 1 to 5. In Cohort 3 there were 4 subjects who received 0.75 mg/m^2 of topotecan once daily on Days 1 to 5.

[1] = Topotecan 0.75 mg/m^2 (Cohort 3) with Compound 1 200 mg/m^2, Day 1, Max
[2] = Topotecan 0.75 mg/m^2 (Cohort 3) with Compound 1 200 mg/m^2, Day 1, Min
[3] = Topotecan 0.75 mg/m^2 (Cohort 3) with Compound 1 200 mg/m^2, Day 1, individual subjects, monohydrochloride
[4] = Topotecan 0.75 mg/m^2 (Cohort 3) with Compound 1 200 mg/m^2, Day 4, Max
[5] = Topotecan 0.75 mg/m^2 (Cohort 3) with Compound 1 200 mg/m^2, Day 4, Min
[6] = Topotecan 0.75 mg/m^2 (Cohort 3) with Compound 1 200 mg/m^2, Day 4, individual subjects, monohydrochloride
[7] = Topotecan 1.25 mg/m^2 (Cohort 2) with Compound 1 200 mg/m^2, Day 1, Max
[8] = Topotecan 1.25 mg/m^2 (Cohort 2) with Compound 1 200 mg/m^2, Day 1, Min
[9] = Topotecan 1.25 mg/m^2 (Cohort 2) with Compound 1 200 mg/m^2, Day 1, individual subjects, monohydrochloride
[10] = Topotecan 1.25 mg/m^2 (Cohort 2) with Compound 1 200 mg/m^2, Day 4, Max
[11] = Topotecan 1.25 mg/m^2 (Cohort 2) with Compound 1 200 mg/m^2, Day 4, Min
[12] = Topotecan 1.25 mg/m^2 (Cohort 2) with Compound 1 200 mg/m^2, Day 4, individual subjects, monohydrochloride
[13] = Topotecan […]^2 (Cohort 1) with Compound 1 200 mg/m^2, Day 1, Max
[14] = Topotecan […]^2 (Cohort 1) with Compound 1 200 mg/m^2, Day 1, Min
[15] = Topotecan […]^2 (Cohort 1) with Compound 1 200 mg/m^2, Day 1, individual subjects, monohydrochloride
[16] = Topotecan […]^2 (Cohort 1) with Compound 1 200 mg/m^2, Day 4, Max
[17] = Topotecan […]^2 (Cohort 1) with Compound 1 200 mg/m^2, Day 4, Min

With CC[C@@]1(O)C(=O)OCc2c1cc1n(c2=O)Cc2cc3c(CN(C)C)c(O)ccc3nc2-1.Cl [topotecan, (S)-10-[(dimethylamino)methyl]-4-ethyl-4,9-dihydroxy-1H-pyrano[3′,4′:6,7]indolizino[1,2-b]quinoline-3,14(4H,12H)-dione monohydrochloride] the AUC24.5 [1] was 0.118 µg·h/mL, the AUCx5 [1] was 78600 nM·min and the Cmax [1] was 0.0385 µg/mL. For the same compound, the t½ [1] was 4.70 h, the AUCinf (Topotecan 0.75 mg/m^2 (Cohort 3) with Compound 1 200 mg/m^2, Day 1, Max, monohydrochloride) was 120 h*ng/mL and 15700 min*nM and the AUC24.5 [2] was 0.075 µg·h/mL. It also gave an AUCx5 [2] of 49700 nM·min, a Cmax [2] of 0.0179 µg/mL and a t½ [2] of 4.04 h. The AUCinf (Topotecan 0.75 mg/m^2 (Cohort 3) with Compound 1 200 mg/m^2, Day 1, Min, monohydrochloride) was 75.9 h*ng/mL and 9950 min*nM, the AUC24.5 [3] was 0.075 µg·h/mL and 0.118 µg·h/mL and 0.0947 µg·h/mL and the AUCinf [3] was 75.9 h*ng/mL and 9950 min*nM and 120 h*ng/mL and 15700 min*nM and 96.8 h*ng/mL and 12700 min*nM. For the same compound, the AUCx5 [3] was 49700 nM·min and 78600 nM·min and 63400 nM·min, the Cmax [3] was 0.0208 µg/mL and 0.0179 µg/mL and 0.0385 µg/mL and 0.032 µg/mL and the t½ [3] was 4.04 h and 4.27 h and 4.70 h. For the same compound, the Cmax [4] was 0.0307 µg/mL, the t½ [4] was 5.07 h and the AUCτ (Topotecan 0.75 mg/m^2 (Cohort 3) with Compound 1 200 mg/m^2, Day 4, Max, monohydrochloride) was 112 h*ng/mL and 14700 min*nM. The Cmax [5] was 0.0184 µg/mL, the t½ [5] was 4.63 h and the AUCτ (Topotecan 0.75 mg/m^2 (Cohort 3) with Compound 1 200 mg/m^2, Day 4, Min, monohydrochloride) was 74.4 h*ng/mL and 9740 min*nM. The AUCτ [6] was 74.4 h*ng/mL and 9740 min*nM and 99.7 h*ng/mL and 13100 min*nM and 112 h*ng/mL and 14700 min*nM, the Cmax [6] was 0.0184 µg/mL and 0.0307 µg/mL and 0.0226 µg/mL and the t½ [6] was 5.07 h and 4.68 h and 4.73 h. The AUC24.5 [7] was 0.247 µg·h/mL, the AUCx5 [7] was 166000 nM·min and the Cmax [7] was 0.0941 µg/mL. For the same compound, the t½ [7] was 5.09 h, the AUCinf (Topotecan 1.25 mg/m^2 (Cohort 2) with Compound 1 200 mg/m^2, Day 1, Max, monohydrochloride) was 254 h*ng/mL and 33300 min*nM and the AUC24.5 [8] was 0.12 µg·h/mL. The AUCx5 [8] was 80400 nM·min, the Cmax [8] was 0.0393 µg/mL and the t½ [8] was 4.78 h. The AUCinf (Topotecan 1.25 mg/m^2 (Cohort 2) with Compound 1 200 mg/m^2, Day 1, Min, monohydrochloride) was 123 h*ng/mL and 16100 min*nM, the AUC24.5 [9] was 0.247 µg·h/mL and 0.12 µg·h/mL and the AUCx5 [9] was 106000 nM·min and 166000 nM·min and 80400 nM·min. For the same compound, the Cmax [9] was 0.0941 µg/mL and 0.0393 µg/mL, the t½ [9] was 5.09 h and 4.92 h and the Cmax [10] was 0.104 µg/mL. The t½ [10] was 5.97 h, the AUCτ (Topotecan 1.25 mg/m^2 (Cohort 2) with Compound 1 200 mg/m^2, Day 4, Max, monohydrochloride) was 231 h*ng/mL and 30300 min*nM and the Cmax [11] was 0.0331 µg/mL. For the same compound, the t½ [11] was 4.98 h, the AUCτ (Topotecan 1.25 mg/m^2 (Cohort 2) with Compound 1 200 mg/m^2, Day 4, Min, monohydrochloride) was 124 h*ng/mL and 16300 min*nM and the AUCτ [12] was 231 h*ng/mL and 30300 min*nM and 124 h*ng/mL and 16300 min*nM. The Cmax [12] was 0.104 µg/mL and 0.0331 µg/mL, the t½ [12] was 5.97 h and 4.98 h and the AUC24.5 [13] was 0.169 µg·h/mL. For the same compound, the AUCx5 [13] was 112000 nM·min, the Cmax [13] was 0.0988 µg/mL and the t½ [13] was 4.56 h. It also gave an AUCx5 [14] of 86600 nM·min, a Cmax [14] of 0.0402 µg/mL and a t½ [14] of 4.11 h. The AUCinf (Topotecan […]^2 (Cohort 1) with Compound 1 200 mg/m^2, Day 1, Min, monohydrochloride) was 17300 nM·min, the AUC24.5 [15] was 0.169 µg·h/mL and the AUCx5 [15] was 112000 nM·min. The t½ [15] was 4.11 h, the Cmax [16] was 0.122 µg/mL and the t½ [16] was 5.11 h. The Cmax [17] was 0.0565 µg/mL, the t½ [17] was 4.64 h and the AUCτ (Topotecan […]^2 (Cohort 1) with Compound 1 200 mg/m^2, Day 4, Min, monohydrochloride) was 18800 nM·min. For the same compound, the t½ (Topotecan […]^2 (Cohort 1) with Compound 1 200 mg/m^2, Day 4, individual subjects, monohydrochloride) was 4.64 h, the AUC (human, plasma, intravenous, Topotecan 0.75 mg/m^2 (Cohort 3) with Compound 1 200 mg/m^2, Day 1, Mean, read-out: AUC24.5) was 0.0928 µg·h/mL and the AUC(0-inf) (human, plasma, intravenous, Topotecan 0.75 mg/m^2 (Cohort 3) with Compound 1 200 mg/m^2, Day 1, Mean, read-out: AUCinf (converted)) was 94.4 ng·h/mL and 0.207 µM·h. The AUC (human, plasma, intravenous, Topotecan 0.75 mg/m^2 (Cohort 3) with Compound 1 200 mg/m^2, Day 1, Mean, read-out: AUCx5 (converted)) was 1030 nM·h.
